We go through 27 molecules from patent US20090099186A1, “INHIBITORS OF VIRAL REPLICATION” (priority 2005, published 2009).

This assay has as its target T1, full-length NS3 (1-631) protein (HCV NS3 helicase) (Hepatitis C virus genotype 1a, UniProt P27958).
T1 construct: Recombinant, purified, full-length NS3 (1-631) protein
Briefly: HCV Helicase TR-FRET Unwinding Assay. In kind it is biochemical. On the procedure:
HCV Helicase TR-FRET Unwinding Assay
Compound potency was assessed by determining the ability of the compound to inhibit DNA unwinding in an in vitro homogeneous time-resolved fluorescence quench assay. The helicase substrate (Perkin Elmer, TruPoint Helicase Substrate) consisted of partially double-stranded DNA, with one oligonucleotide strand labeled with a fluorescent europium chelate and the other strand labeled with the QSY™ 7 quencher. In the presence of helicase and ATP, this DNA is unwound and a large increase in fluorescence is observed. An excess of an unlabeled oligonucleotide (also from Perkin Elmer, TruPoint Helicase Capture Strand) that is complementary to the quencher strand was included in the assay to prevent reannealing of the europium and QSY-labeled strands.
The assay buffer consisted of 25 mM MOPS (pH 7.0), 500 μM MgCl2, and 0.005% (v/v) Triton X-100, with DMSO being present at a final concentration of 2% (v/v). Recombinant, purified, full-length NS3 (1-631) protein was included in these assays at a final concentration of 2.5 nM. Compound was incubated with NS3 protein for 5 minutes in a 384-well white Proxiplate™ (Perkin Elmer) prior to the addition of TruPoint Helicase Substrate (4 nM final concentration), TruPoint Helicase Capture Strand (15 nM final concentration), and ATP (100 μM final concentration). The final reaction volume was 20 μL. Immediately after the addition of the substrates and capture strand, the initial rates of the unwinding reactions were determined at room temperature via an Envision (Perkin Elmer) plate reader. The rates of reactions containing test compound were compared to those lacking test compound in order to evaluate compound potency. IC50 values were determined using the curve-fitting software XLfit (IDBS).
(In general: Time-resolved FRET reads energy transfer from a long-lived donor to a nearby acceptor.)

Setting [1] is: Table 4, inhibition of DNA unwinding, 2.5 nM NS3, 100 μM ATP.
[2] abbreviates: second TR-FRET IC50 column (c2) of Table 4, same head as the first, inhibition of DNA unwinding.

T1 sequence (P27958 1027-1657 T1100M/T1173A/K1247Q/A1303G/S1327L/G1556E/R1608W): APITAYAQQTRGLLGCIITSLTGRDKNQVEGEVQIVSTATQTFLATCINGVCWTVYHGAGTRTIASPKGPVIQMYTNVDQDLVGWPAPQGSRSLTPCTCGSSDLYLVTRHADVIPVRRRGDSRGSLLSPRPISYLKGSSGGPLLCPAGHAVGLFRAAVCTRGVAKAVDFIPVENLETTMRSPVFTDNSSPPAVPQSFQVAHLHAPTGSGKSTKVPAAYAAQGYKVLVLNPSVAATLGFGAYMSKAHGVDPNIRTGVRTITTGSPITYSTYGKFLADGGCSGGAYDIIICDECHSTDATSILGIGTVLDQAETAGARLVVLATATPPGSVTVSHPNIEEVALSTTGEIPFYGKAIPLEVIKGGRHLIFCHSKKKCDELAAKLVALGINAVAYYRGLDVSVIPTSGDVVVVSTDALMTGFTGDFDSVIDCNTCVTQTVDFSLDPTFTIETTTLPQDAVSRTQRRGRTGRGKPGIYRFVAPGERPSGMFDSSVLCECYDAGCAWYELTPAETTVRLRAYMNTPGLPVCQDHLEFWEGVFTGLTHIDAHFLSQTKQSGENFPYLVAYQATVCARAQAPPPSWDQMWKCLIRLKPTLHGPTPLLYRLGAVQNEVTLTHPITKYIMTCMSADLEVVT

In general, IC50 refers to the concentration that gives 50% inhibition. Take `O=C(/C=C/c1ccc(Sc2ccc(F)cc2)cc1Cl)N1CCN(C(=O)c2ccoc2)CC1` [Example 1B, (E)-3-(2-chloro-4-(4-fluorophenylthio)phenyl)-1-(4-(furan-3-carbonyl)piperazin-1-yl)prop-2-en-1-one]: the IC50 by setting is: under setting [1], 10 to 50 µM; under setting [2], 10 to 50 µM.

For `Cc1cc(/C=C/C(=O)N2CCCCC2)c(Cl)cc1Sc1ccc(F)cc1` [Example 16G, (E)-3-(2-chloro-4-(4-fluorophenylthio)-5-methylphenyl)-1-(piperidin-1-yl)prop-2-en-1-one], the IC50 reads like this: under setting [1], 10 to 50 µM; under setting [2], 10 to 50 µM.

Turning to `COC(=O)c1cccc(NC(=O)/C=C/c2ccc(Sc3ccc(F)cc3)cc2Cl)c1` [Example 7, (E)-methyl 3-(3-(2-chloro-4-(4-fluorophenylthio)phenyl)acrylamido)benzoate], the IC50 reads like this: under setting [1], below 10 µM; under setting [2], below 10 µM.

`O=C(/C=C/c1ccc(Sc2ccc(F)cc2)cc1Cl)Nc1cccc(C(=O)O)c1` [Example 8, (E)-3-(3-(2-chloro-4-(4-fluorophenylthio)phenyl)acrylamido)benzoic acid]: the IC50 by setting is: under setting [1], below 10 µM; under setting [2], below 10 µM.

In turn, `COc1ccccc1Sc1ccc(/C=C/C(=O)N2CCN(C(=O)c3ccoc3)CC2)c(Cl)c1` [Example 27, (E)-3-(2-chloro-4-(2-methoxyphenylthio)phenyl)-1-(4-(furan-3-carbonyl)piperazin-1-yl)prop-2-en-1-one] displayed an IC50 under setting [1] of 10 to 50 µM and an IC50 under setting [2] of 10 to 50 µM.

In the case of `COc1ccccc1Sc1ccc(/C=C/C(=O)N2CCC(C(=O)O)CC2)c(Cl)c1` [Example 26, (E)-1-(3-(2-chloro-4-(2-methoxyphenylthio)phenyl)acryloyl)piperidine-4-carboxylic acid], the IC50 by setting is: under setting [1], 10 to 50 µM; under setting [2], 10 to 50 µM.

`COc1ccccc1Sc1ccc(/C=C/C(=O)NCCC2CCN(C)C2)c(Cl)c1` (stereo not drawn) [Example 25, (E)-3-(2-chloro-4-(2-methoxyphenylthio)phenyl)-N-(2-(1-methylpyrrolidin-3-yl)ethyl)acrylamide]: the IC50 reads like this: under setting [1], 10 to 50 µM; under setting [2], 10 to 50 µM.

Molecule `CCN(CC)C(=O)/C=C/c1cc(C)c(Sc2ccc(F)cc2)cc1Cl` [Example 18, (E)-3-(2-chloro-4-(4-fluorophenylthio)-5-methylphenyl)-N,N-diethylacrylamide] registered an IC50 under setting [1] of 10 to 50 µM and an IC50 under setting [2] of 10 to 50 µM.

With `CCOC(=O)CCNC(=O)/C=C/c1cc(C)c(Sc2ccc(F)cc2)cc1Cl` [Example 19, (E)-ethyl 3-(3-(2-chloro-4-(4-fluorophenylthio)-5-methylphenyl)acrylamido)propanoate], the concentration for half-maximal inhibition (IC50) is, setting by setting: under setting [1], 10 to 50 µM; under setting [2], 10 to 50 µM.

For `O=C(O)C1CCN(C(=O)/C=C/c2ccc(Sc3ccc(F)cc3)cc2Cl)CC1` [Example 6], the IC50 was 10 to 50 µM under setting [1] and 10 to 50 µM under setting [2].

Regarding `O=C(/C=C/c1ccc(Sc2ccc(F)cc2)cc1Cl)N1CCOCC1` [Example 3, (E)-3-(2-chloro-4-(4-fluorophenylthio)phenyl)-1-morpholinoprop-2-en-1-one], the IC50 is 10 to 50 µM under setting [1] and 10 to 50 µM under setting [2].

Turning to `CCN(CC)C(=O)/C=C/c1ccc(Sc2ccc(F)cc2)cc1Cl` [Example 4, (E)-3-(2-chloro-4-(4-fluorophenylthio)phenyl)-N,N-diethylacrylamide], the IC50 by setting is: under setting [1], 10 to 50 µM; under setting [2], 10 to 50 µM.

As to `COC(=O)C1CCN(C(=O)/C=C/c2ccc(N(C)C)cc2Cl)CC1` [Example 14, (E)-methyl 1-(3-(2-chloro-4-(dimethylamino)phenyl)acryloyl)piperidine-4-carboxylate], the IC50 by setting is: under setting [1], 10 to 50 µM; under setting [2], 10 to 50 µM.

On to `Cc1cc(/C=C/C(=O)N2CCOCC2)c(Cl)cc1Sc1ccc(F)cc1` [Example 23, (E)-3-(2-chloro-4-(4-fluorophenylthio)-5-methylphenyl)-1-morpholinoprop-2-en-1-one], for which the IC50 runs as follows: under setting [1], 10 to 50 µM; under setting [2], 10 to 50 µM.

Regarding `COc1ccccc1Sc1ccc(/C=C/C(=O)N2CCC(N3CCCC3)CC2)c(Cl)c1` [Example 30, (E)-3-(2-chloro-4-(2-methoxyphenylthio)phenyl)-1-(4-(pyrrolidin-1-yl)piperidin-1-yl)prop-2-en-1-one], the IC50 by setting is: under setting [1], 10 to 50 µM; under setting [2], 10 to 50 µM.

Turning to `O=C(/C=C/c1ccccc1Cl)Nc1ccccc1` [Example 35, (E)-3-(2-chlorophenyl)-N-phenylacrylamide], the IC50 runs as follows: under setting [1], 10 to 50 µM; under setting [2], 10 to 50 µM.

As for `CN(C)c1ccc(/C=C/C(=O)NCCN2CCOCC2)c(Cl)c1` [Example 10], the IC50 runs as follows: under setting [1], 10 to 50 µM; under setting [2], 10 to 50 µM.

With `O=C(/C=C/c1ccccc1Cl)NCCO` [Example 33], the IC50 is, setting by setting: under setting [1], 10 to 50 µM; under setting [2], 10 to 50 µM.

`CN(C)c1ccc(/C=C/C(=O)N2CCC(C(=O)O)CC2)c(Cl)c1` [Example 15]: the IC50 reads like this: under setting [1], 10 to 50 µM; under setting [2], 10 to 50 µM.

`COc1ccccc1Sc1ccc(/C=C/C(=O)NCCCN(C)C)c(Cl)c1` [Example 24B, (E)-3-(2-chloro-4-(2-methoxyphenylthio)phenyl)-N-(3-(dimethylamino)propyl)acrylamide]: the IC50 was 10 to 50 µM under setting [1] and 10 to 50 µM under setting [2].

Take `O=C(/C=C/c1ccc(Sc2ccc(F)cc2)cc1Cl)N1CCCCC1` [Example 2, (E)-3-(2-chloro-4-(4-fluorophenylthio)phenyl)-1-(piperidin-1-yl)prop-2-en-1-one]: the IC50 was below 10 µM under setting [1] and below 10 µM under setting [2].

Turning to `CN(C)c1ccc(/C=C/C(=O)N2CCOCC2)c(Cl)c1` [Example 13, (E)-3-(2-chloro-4-(dimethylamino)phenyl)-1-morpholinoprop-2-en-1-one], the IC50 lay in the range of 10 to 50 µM under setting [1] and 10 to 50 µM under setting [2].

Molecule `CN(C)c1ccc(/C=C/C(=O)NCCCn2ccnc2)c(Cl)c1` [Example 11, (E)-N-(3-(1H-imidazol-1-yl)propyl)-3-(2-chloro-4-(dimethylamino)phenyl)acrylamide] showed an IC50 under setting [1] of 10 to 50 µM and an IC50 under setting [2] of 10 to 50 µM.

For `COC(=O)C1CCN(C(=O)/C=C/c2ccc(Sc3ccc(F)cc3)cc2Cl)CC1` [Example 5, (E)-methyl 1-(3-(2-chloro-4-(4-fluorophenylthio)phenyl)acryloyl)piperidine-4-carboxylate], the IC50 is 10 to 50 µM under setting [1] and 10 to 50 µM under setting [2].

On to `Cc1cc(/C=C/C(=O)N2CCC(C(=O)O)CC2)c(Cl)cc1Sc1ccc(F)cc1` [Example 22, (E)-1-(3-(2-chloro-4-(4-fluorophenylthio)-5-methylphenyl)acryloyl)piperidine-4-carboxylic acid], for which the IC50 by setting is: under setting [1], 10 to 50 µM; under setting [2], below 10 µM.

Take `O=C(O)C1CCN(C(=O)/C=C/c2ccc(Sc3ccc(F)cc3)cc2C(F)(F)F)CC1` [Example 31B, (E)-1-(3-(4-(4-fluorophenylthio)-2-(trifluoromethyl)phenyl)acryloyl)piperidine-4-carboxylic acid]: the IC50 lay within 10 to 50 µM under setting [1] and 10 to 50 µM under setting [2].

`CC(=O)N1CCN(C(=O)/C=C/c2ccc(N(C)C)cc2Cl)CC1` [Example 9B, (E)-1-(4-acetylpiperazin-1-yl)-3-(2-chloro-4-(dimethylamino)phenyl)prop-2-en-1-one] gave an IC50 under setting [1] below 10 µM and an IC50 under setting [2] below 10 µM.
